Measured values as given in patent publication US20130190190A1, “MOLECULAR TARGETS FOR MODULATING INTRAOCCULAR PRESSURE AND DIFFERENTIATION OF STEROID RESPONSES VERSUS NON-RESPONDERS” (priority 2007, published 2013).

Assay: Intraocular pressure (IOP) change in study eyes of patients after a single intravitreal triamcinolone acetonide (IVTA) injection
Format: in vivo, human
Conditions: 56 eyes
Protocol: Patients who were recruited were offered treatment with IVTA for various retinal diseases or who had received IVTA in the past. Each patient was treated with IVTA, 4 mg in 0.1 cc, for a variety of indications, at the discretion of the treating physician. Inclusion criteria included age greater than 18 years and the ability to give appropriate informed consent. Exclusion criteria included prior pars plana vitrectomy in the study eye, anterior-segment neovascularization in the study eye, the use of any medication intended to lower IOP in the study eye, or a history of glaucoma, suspected glaucoma, or ocular hypertension in the study eye. All IOP measurements were as per the treating physician's standard practice, typically either applanation tonometry or Tono-pen (Reichert, Depew, N.Y.). No standardized IOP measurement protocol was followed. Intraocular pressure (TOP) was recorded in the study eye prior to treatment with IVTA (baseline IOP). Follow-up was performed at the discretion of the treating physician. On each subsequent visit, IOP was recorded (follow-up IOP) for up to 1 year, or until the study eye was treated with any subsequent intraocular surgery, any subsequent intravitreal injection, or any medication intended to lower IOP. Therefore, during the time period relevant to this study, each eye received only one intravitreal injection. All treatment decisions were at the discretion of the treating physician. The highest follow-up IOP was recorded (maximum IOP). The primary outcome measure was the difference between maximum IOP and baseline IOP was calculated (A IOP), with a positive value indicating a rise in IOP.

For `CC1(C)O[C@@H]2C[C@H]3[C@@H]4CCC5=CC(=O)C=C[C@]5(C)[C@@]4(F)[C@@H](O)C[C@]3(C)[C@]2(C(=O)CO)O1` [IVTA, triamcinolone acetonide], the “Mean Δ IOP (maximum IOP minus baseline IOP)” value (IVTA 4 mg in 0.1 cc intravitreal, follow-up up to 1 year, positive value = rise in IOP) was 7 mmHg, the “Eyes with Δ IOP greater than 10 mmHg” value (IVTA 4 mg intravitreal, follow-up up to 1 year, 9 eyes) was 16% and the “Eyes with Δ IOP less than 5 mmHg” value (IVTA 4 mg intravitreal, follow-up up to 1 year, 20 eyes) was 36%. For the same compound, the “Eyes with Δ IOP 5-10 mmHg” value (IVTA 4 mg intravitreal, follow-up up to 1 year, 27 eyes) was 48% and the “Mean maximum follow-up IOP” value (patients with retinal diseases, IVTA 4 mg in 0.1 cc, one intravitreal injection, highest IOP in follow-up up to 1 year, mean baseline IOP 15 mmHg) was 22 mmHg.
